{"source": "patent US20260364184A1", "about": "“COMPOUND BASED ON OXOISOINDOLINYL-SUBSTITUTED TETRAHYDROPYRIMIDINE-DIONE AND USE THEREOF” (GLUETACS THERAPEUTICS (SHANGHAI) CO., LTD., priority 2023, published 2026)", "data": [{"target": "T1, IRAK4 (Homo sapiens, UniProt Q9NWZ3)", "T1 construct": "expression of target proteins in cells; endogenous in cells", "T1 sequence (Q9NWZ3 1-460)": "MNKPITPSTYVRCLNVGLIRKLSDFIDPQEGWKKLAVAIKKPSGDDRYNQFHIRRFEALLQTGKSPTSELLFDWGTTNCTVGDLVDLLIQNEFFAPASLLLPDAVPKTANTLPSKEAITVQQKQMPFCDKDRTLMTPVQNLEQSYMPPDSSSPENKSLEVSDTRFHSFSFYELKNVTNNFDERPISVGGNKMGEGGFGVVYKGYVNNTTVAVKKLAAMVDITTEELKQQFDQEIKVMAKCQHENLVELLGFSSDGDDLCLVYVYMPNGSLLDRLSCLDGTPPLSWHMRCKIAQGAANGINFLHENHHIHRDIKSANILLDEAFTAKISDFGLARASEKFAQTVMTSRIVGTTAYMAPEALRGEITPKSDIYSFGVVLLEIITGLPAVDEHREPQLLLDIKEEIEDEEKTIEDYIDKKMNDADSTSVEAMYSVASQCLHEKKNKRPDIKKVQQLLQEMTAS", "assay": "Western blot degradation of IRAK4", "type": "cell-based", "details": "hPBMC Cell; 24 hours", "experimental": "Conventional Western blot assay was performed to evaluate the effects of the compounds of the present disclosure on the expression of target proteins in cells.\n(1) Cell Seeding and Protein Harvesting: The selected cells were processed according to the cell seeding procedure and protein harvesting procedure in Table II-2.\n(2) To the collected supernatant, 5×SDS sample loading buffer was added, followed by denaturation at 95 °C for 5 minutes. The denatured samples were then separated by SDS-PAGE electrophoresis on a polyacrylamide gel. Proteins were transferred to a nitrocellulose membrane (0.45 μm NC membrane), blocked with blocking buffer at room temperature for 1 hour, and subjected to antibody incubation and development procedures according to the antibody manufacturer's instructions (Cell Signaling Technology).\nHalf-Maximal Degradation Concentration value (the drug concentration required for degrading proteins by 50%, abbreviated as DC50) reads method: comparing the grayscale values of Western blot bands from drug-treated samples with those from blank DMSO-treated controls, and identifying the drug concentration range at which the grayscale value is half that of the DMSO-treated control bands.\nDC50 values can be calculated using ImageJ software to measure grayscale values of Western blot bands from drug-treated samples. The concentration-response curve is fitted to estimate the drug concentration corresponding to half the grayscale value.\nTarget protein remaining (%) refers to the percentage of target protein remaining in cells after treatment with protein degrader compounds.\nCalculation method for target protein remaining (%): Use ImageJ software to measure grayscale values of Western blot bands from drug (protein degrader)-treated samples. The grayscale value of drug-treated bands is divided by that of internal control protein bands, and the resulting quotient is normalized to obtain the relative percentage of remaining target protein after protein degrader treatment.\nTarget protein degradation rate (%)=1−target protein remaining (%).", "values": [{"compound": "COc1cc2nn([C@H]3CC[C@H](CN4CCN(C5CCN(c6ccc7c(c6)C(=O)N(N6CCC(=O)NC6=O)C7=O)CC5(F)F)CC4)CC3)cc2cc1NC(=O)c1cccc(C(F)(F)F)c1", "note": "(stereo partly shown) [GT-08672, N-(2-((1r,4r)-4-((4-(1-(2-(2,4-dioxotetrahydropyrimidin-1(2H)-yl)-1,3-dioxoisoindolin-5-yl)-3,3-difluoropiperidin-4-yl)piperazin-1-yl)methyl)cyclohexyl)-6-methoxy-2H-indazol-5-yl)-3-(trifluoromethyl)benzamide]", "Degradation of substrate protein IRAK4 (substrate protein remaining %)": "A (0%≤substrate protein remaining %≤80%)"}, {"compound": "COc1cc2nn(C3CCN(Cc4ccc5c(c4)C(=O)N(N4CCC(=O)NC4=O)C5=O)CC3)cc2cc1NC(=O)c1cccc(C(F)(F)F)c1", "note": "[GT-05078, N-(2-(1-((2-(2,4-dioxotetrahydropyrimidin-1(2H)-yl)-1,3-dioxoisoindolin-5-yl)methyl)piperidin-4-yl)-6-methoxy-2H-indazol-5-yl)-3-(trifluoromethyl)benzamide]", "Degradation of substrate protein IRAK4 (substrate protein remaining %)": "A (0%≤substrate protein remaining %≤80%)"}, {"compound": "COc1cc2nn([C@H]3CC[C@H](CN4CCN(c5cccc6c5C(=O)N(N5CCC(=O)NC5=O)C6=O)CC4)CC3)cc2cc1NC(=O)c1cccc(C(F)(F)F)n1", "note": "[GT-08655, N-(2-((1r,4r)-4-((4-(2-(2,4-dioxotetrahydropyrimidin-1(2H)-yl)-1,3-dioxoisoindolin-4-yl)piperazin-1-yl)methyl)cyclohexyl)-6-methoxy-2H-indazol-5-yl)-6-(trifluoromethyl) picolinamide]", "Degradation of substrate protein IRAK4 (substrate protein remaining %)": "A (0%≤substrate protein remaining %≤80%)"}, {"compound": "CC(C)Nc1cc(-n2ccc3cc(C#N)cnc32)ncc1C(=O)NC1CCN(CC2CCN(c3cccc4c3C(=O)N(N3CCC(=O)NC3=O)C4=O)CC2)CC1", "note": "[GT-05814, 6-(5-cyano-1H-pyrrolo[2,3-b]pyridin-1-yl)-N-(1-((1-(2-(2,4-dioxotetrahydropyrimidin-1(2H)-yl)-1,3-dioxoisoindolin-4-yl)piperidin-4-yl)methyl)piperidin-4-yl)-4-(isopropylamino) nicotinamide]", "Degradation of substrate protein IRAK4 (substrate protein remaining %)": "A (0%≤substrate protein remaining %≤80%)"}, {"compound": "O=C1CCN(N2C(=O)c3cccc(N4CCN(C[C@H]5CC[C@H](n6cc(NC(=O)c7cnn8ccc(N9C[C@H]%10C[C@@H]9CO%10)nc78)c(C(F)F)n6)CC5)CC4)c3C2=O)C(=O)N1", "note": "[GT-05241, 5-((1R,4R)-2-oxa-5-azabicyclo[2.2.1]heptan-5-yl)-N-(3-(difluoromethyl)-1-((1r,4R)-4-((4-(2-(2,4-dioxotetrahydropyrimidin-1(2H)-yl)-1,3-dioxoisoindolin-4-yl)piperazin-1-yl)methyl)cyclohexyl)-1H-pyrazol-4-yl)pyrazolo[1,5-a]pyrimidine-3-carboxamide]", "Degradation of substrate protein IRAK4 (substrate protein remaining %)": "A (0%≤substrate protein remaining %≤80%)"}, {"compound": "COc1cc2nn([C@H]3CC[C@H](CN4C5CCC4CN(c4ccc6c(c4)C(=O)N(N4CCC(=O)NC4=O)C6=O)C5)CC3)cc2cc1NC(=O)c1cccc(C(F)(F)F)n1", "note": "[GT-08654, N-(2-((1r,4r)-4-((3-(2-(2,4-dioxotetrahydropyrimidin-1(2H)-yl)-1,3-dioxoisoindolin-5-yl)-3,8-diazabicyclo[3.2.1]octan-8-yl)methyl)cyclohexyl)-6-methoxy-2H-indazol-5-yl)-6-(trifluoromethyl) picolinamide]", "Degradation of substrate protein IRAK4 (substrate protein remaining %)": "A (0%≤substrate protein remaining %≤80%)"}, {"compound": "O=C1CCN(N2C(=O)c3ccc(N4CC5CC(C4)N5C[C@H]4CC[C@H](n5cc(NC(=O)c6cnn7ccc(N8C[C@H]9C[C@@H]8CO9)nc67)c(C(F)F)n5)CC4)cc3C2=O)C(=O)N1", "note": "[GT-05822, 5-((1R,4R)-2-oxa-5-azabicyclo[2.2.1]heptan-5-yl)-N-(3-(difluoromethyl)-1-((1r,4R)-4-((3-(2-(2,4-dioxotetrahydropyrimidin-1(2H)-yl)-1,3-dioxoisoindolin-5-yl)-3,6-diazabicyclo[3.1.1]heptan-6-yl)methyl)cyclohexyl)-1H-pyrazol-4-yl)pyrazolo[1,5-a]pyrimidine-3-carboxamide]", "Degradation of substrate protein IRAK4 (substrate protein remaining %)": "A (0%≤substrate protein remaining %≤80%)"}]}]}
